From US12479818B2, “Treatment of fibrosis with IRE1 small molecule inhibitors” (Cornell University, priority 2019, dated 2025) come the findings set out here.

Molecules are shown by their SMILES. Some results are limits rather than exact numbers.

Series [1] deals with T1, IRE1a (Homo sapiens, UniProt O75460). As to the kind of experiment: In vitro FRET assay (IRE1a cleavage of XBP1 RNA probe). Format: biochemical. The arrangement: purchased SignalChem. The conditions noted are these: IRE1a 2 nM, tested as the salt named. Here is the method:
Selected compounds were serially diluted with DMSO in a non-binding black 384-well plate for a total of 15 ul in each well. 2 ul of the serially diluted compound or DMSO control were then added to new wells containing 98 ul of 1×CAB, for a total volume of 100 ul, 10 ul of which were then transferred to wells of a new plate. 5 ul of the diluted IRE1a was then added to each well. 5 ul of a […] XBP1 RNA probe was then added to each well.
Each probe contained a 5′ 6-FAM modification and a 3′ IOWA Black FQ modification.
A second FRET assay was performed to assess ATP-mediated inhibition. In this case, compounds and IRE1a were prepared and combined as discussed above, with the addition of ATP up to 1 mM final concentration. This mixture was incubated at room temperature for 60 minutes and then 5 ul of 400 nM XBP1 wildtype or mutant RNA probe was added.

For another series, the system named is 293T cells. As to the kind of experiment: Growth assay (cytotoxicity). It is filed as cell-based, human. The conditions noted are these: 2 day incubation. The method, then:
A growth assay was performed to evaluate the compounds disclosed herein for cytotoxicity. […] 133.3 uL cDMEM was added to wells 1, 2, 3, 5, 6, and 7 in rows A, C, E and G of the dilution plate. Compounds were serially diluted leftwards in threefold dilutions (66.7 uL into 133.3 uL cDMEM). 20 μL of each dilution was transferred in duplicate (duplicates in vertical paired wells) to the cells plated in the 96-well plate shown in Table 5, to the total concentrations shown below. 200 uL cDMEM was added to media wells (wells G5-H8). The plate was then placed in a humidified chamber for a 2 day incubation, and then photographed (media was more yellow in wells with potent cell growth).

Series [2] deals with T1, IRE1a. Put plainly: IRE1a Endoribonuclease Nanoluciferase Assay (XBP1 luciferase reporter in 293T cells). It is filed as cell-based. Further details: endogenous in cells; host or cells: 293T. The conditions noted are these: XBP1 nanoluciferase reporter in 293T cells, ER stressor; tested as the salt named. In general terms: In a reporter assay the amount or activity of a reporter protein is the signal.

A short description of series [3]: Bioavailability assay (mouse pharmacokinetic study). Format: in vivo. The settings on record: IV 1 mg/kg, PO 30 mg/kg (Compound A PO 10 mg/kg).
A further series has as its system IRE1a/XBP1 pathway. As to the kind of experiment: Assay for inhibition of endogenous XBP1 splicing in 293T cells with tunicamycin. It is filed as cell-based, human. The settings on record: XBP1 splicing by qPCR. The method, then: Gene expression was evaluated by quantitative PCR for XBP1s and total XBP1 transcripts using the 2^(−ΔCT) method for calculating normalized gene expression. Gene expression levels were normalized to ACTB transcripts. XBP1 splicing was calculated as actin-normalized XBP1s expression divided by actin-normalized total XBP1 expression.
On the technique in general: Quantitative PCR measures a nucleic acid by following its amplification.

Series [4] can be described thus: Metabolic assays of N,N-dimethyl compounds. It is filed as in vitro ADME. The settings on record: data not shown.
Series [5] has as its target T1, IRE1a. Put plainly: IRE1a phosphorylation inhibition assay (immunoblot, tunicamycin-treated 293T cells). Format: cell-based. The arrangement: endogenous in cells; host or cells: 293T. The conditions noted are these: human 293T cells. Here is the method: Inhibition of ER stress-induced IRE1a phosphorylation and XBP1s protein accumulation in human 293T cells was assessed. Immunoblot analysis was performed in human 293T cells lysates obtained from cells after exposure to the chemical ER stress-inducing agent tunicamycin, and optional treatment with Compound C. Lysates were probed with antibodies recognizing IRE1a, phosphorylated IRE1a, XBP1, or TATA-binding protein (TBP). TBP was blotted as a protein loading control. […] 20 nM was sufficient to reduce XBP1s protein levels below the limit of detection in this assay.
A general note: Immunoblotting shows a protein as a band on a membrane.

Series [6] concerns IRE1a-mediated XBP1 splicing. Put plainly: Assay for target engagement in pancreas and salivary gland (RT-qPCR of XBP1 splicing). It is filed as in vivo. The settings on record: mice, 30 mg/kg oral gavage, 6 hours, compared to control and Compound B. The method, then: Mice (n=3 per group) were orally gavaged with 30 mg/kg vehicle control or IRE1 inhibitors dissolved in H2O. After 6 hours, mice were euthanized and pancreas and salivary gland tissues were isolated, snap frozen on dry ice, and used for subsequent RT-qPCR analysis of beta-actin, XBP1s and total XBP1. Gene expression was evaluated by quantitative PCR for XBP1s and total XBP1 transcripts using the 2^(−ΔCT) method for calculating normalized gene expression. Gene expression levels were normalized to Actb transcripts. XBP1 splicing is calculated as XBP1s expression divided by total XBP1 expression.

T1 sequence (O75460 19-977): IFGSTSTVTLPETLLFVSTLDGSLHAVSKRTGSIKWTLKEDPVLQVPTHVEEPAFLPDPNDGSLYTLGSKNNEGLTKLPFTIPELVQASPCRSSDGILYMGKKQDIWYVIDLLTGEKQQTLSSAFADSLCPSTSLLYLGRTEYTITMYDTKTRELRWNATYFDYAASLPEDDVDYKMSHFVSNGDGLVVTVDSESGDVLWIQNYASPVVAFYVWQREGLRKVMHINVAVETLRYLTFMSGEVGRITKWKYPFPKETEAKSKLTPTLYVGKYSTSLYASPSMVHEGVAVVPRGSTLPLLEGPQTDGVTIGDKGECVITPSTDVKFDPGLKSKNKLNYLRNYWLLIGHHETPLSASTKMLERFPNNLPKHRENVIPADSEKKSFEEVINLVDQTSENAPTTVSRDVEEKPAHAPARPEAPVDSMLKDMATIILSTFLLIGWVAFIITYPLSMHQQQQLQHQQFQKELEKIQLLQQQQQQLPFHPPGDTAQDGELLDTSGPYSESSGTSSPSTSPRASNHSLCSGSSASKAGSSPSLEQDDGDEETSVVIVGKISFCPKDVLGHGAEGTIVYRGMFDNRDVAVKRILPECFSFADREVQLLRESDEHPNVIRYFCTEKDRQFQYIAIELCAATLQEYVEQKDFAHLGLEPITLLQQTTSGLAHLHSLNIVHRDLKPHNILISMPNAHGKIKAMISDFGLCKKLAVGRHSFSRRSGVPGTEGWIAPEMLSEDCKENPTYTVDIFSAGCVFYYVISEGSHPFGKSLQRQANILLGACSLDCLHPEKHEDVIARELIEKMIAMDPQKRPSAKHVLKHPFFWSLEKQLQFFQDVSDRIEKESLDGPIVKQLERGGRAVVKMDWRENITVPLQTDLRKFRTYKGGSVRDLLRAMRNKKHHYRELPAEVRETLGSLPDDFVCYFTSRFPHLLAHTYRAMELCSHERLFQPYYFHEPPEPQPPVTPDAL

A word on the IC50: it is the concentration at which inhibition is half-maximal. Usually EC50 stands for the midpoint of the concentration-response curve. As to `CCc1cc(-c2cnc(NS(=O)(=O)c3ccccc3Cl)cn2)cc2cnc(N[C@H]3CC[C@H](N)CC3)nc12` [Compound 25, N-(5-(2-(((1r,4r)-4-aminocyclohexyl)amino)-8-ethylquinazolin-6-yl)pyrazin-2-yl)-2-chlorobenzene-sulfonamide], the IC50 at IRE1a [1] was under 5 nM. Moreover, the “% Growth at 0.185 uM” value in the series on 293T cells (0.185 uM) is recorded as “D (D: > 75% to ≤ 100%)”. For the same molecule, in the series with 293T cells, the “% Growth at 0.5556 uM” value is on record as “D (D: > 75% to ≤ 100%)”, the “% Growth at 1.667 uM” value was “D (D: > 75% to ≤ 100%)” and the “% Growth at 5 uM” value is on record as “D (D: > 75% to ≤ 100%)”. For the same molecule, the EC50 on IRE1a [2] is under 5 nM.
Turning to `CCc1cc(-c2ccc(NS(=O)(=O)c3ccccc3Cl)nc2OC)cc2cnc(N[C@H]3CC[C@H](N)CC3)nc12` [Compound 37, N-(5-(2-(((1r,4r)-4-aminocyclohexyl)amino)-8-ethylquinazolin-6-yl)-6-methoxypyridin-2-yl)-2-chlorobenzene-sulfonamide], in the series on 293T cells, the “% Growth at 0.5556 uM” value is reported as “D (D: > 75% to ≤ 100%)”, the “% Growth at 1.667 uM” value is recorded as “C (C: > 50% to ≤ 75%)” and the “% Growth at 5 uM” value was “B (B: > 25% to ≤ 50%)”. For the same molecule, the concentration for a half-maximal effect (EC50) on IRE1a [2] is under 5 nM.
On to `CCc1cc(-c2ccc(NS(=O)(=O)c3ccccc3Cl)c(F)c2)cc2cnc(N[C@H]3CC[C@H](NC(=O)[C@@H](N)C(C)C)CC3)nc12` [Compound 58, (S)-2-amino-N-((1r,4S)-4-((6-(4-((2-chlorophenyl)sulfonamido)-3-fluorophenyl)-8-ethylquinazolin-2-yl)amino)cyclohexyl)-3-methylbutanamide], for which, on IRE1a [1], the IC50 is 5 to 50 nM. At IRE1a [2], the EC50 is under 5 nM.
For `CCc1cc(-c2ccc(NS(=O)(=O)c3ccccc3Cl)c(F)c2)cc2cnc(N[C@@H]3CC[C@H](N)[C@H](C)C3)nc12` [Compound 70, N-(4-(2-(((1R,3R,4S)-4-amino-3-methylcyclohexyl)amino)-8-ethylquinazolin-6-yl)-2-fluorophenyl)-2-chlorobenzene-sulfonamide], the IC50 on IRE1a [1] is under 5 nM. On IRE1a [2], the EC50 was under 5 nM.
As to `CCc1cc(-c2ccc(NS(=O)(=O)c3ccccc3Cl)c(F)c2)cc2cnc(N[C@H]3CCCNC3)nc12` [Compound 73, (S)-2-chloro-N-(4-(8-ethyl-2-(piperidin-3-ylamino)quinazolin-6-yl)-2-fluorophenyl) benzene-sulfonamide], on IRE1a [1], the IC50 is under 5 nM. For the same molecule, the EC50 on IRE1a [2] is under 5 nM.
With `N[C@H]1CC[C@@H](Nc2ncc3cc(-c4ccc(NS(=O)(=O)c5ccccc5Cl)c(F)c4)ccc3n2)C1` [Compound 80], the IC50 at IRE1a [1] was under 5 nM. Moreover, the EC50 on IRE1a [2] was in the range of 100 to 10000 nM.
Regarding `CCc1cc(-c2ccc(NS(=O)(=O)c3ccccc3Cl)nc2C)cc2cnc(N[C@H]3CC[C@H](N(C)C)CC3)nc12` [Compound 91, 2-chloro-N-(5-(2-(((1r,4r)-4-(dimethylamino)cyclohexyl)amino)-8-ethylquinazolin-6-yl)-6-methylpyridin-2-yl)benzenesulfonamide], the IC50 at IRE1a [1] is under 5 nM. In addition, the EC50 at IRE1a [2] is under 5 nM.
As for `CCc1cc(-c2ncc(NS(=O)(=O)c3ccccc3Cl)nc2OC)cc2cnc(N[C@H]3CC[C@H](N(C)C)CC3)nc12` [Compound 157, 2-chloro-N-(5-(2-(((1r,4r)-4-(dimethylamino)cyclohexyl)amino)-8-ethylquinazolin-6-yl)-6-methoxypyrazin-2-yl)benzenesulfonamide], on IRE1a [2], the EC50 is under 5 nM.
The same measure, in the same setting: then `CCc1cc(-c2ccc(NS(=O)(=O)c3cccc(F)c3Cl)nc2C)cc2cnc(N[C@H]3CC[C@H](N(C)C)CC3)nc12` [Compound 158, 2-chloro-N-(5-(2-(((1r,4r)-4-(dimethylamino)cyclohexyl)amino)-8-ethylquinazolin-6-yl)-6-methylpyridin-2-yl)-3-fluorobenzenesulfonamide], with under 5 nM; and `CCc1cc(-c2nnc(NS(=O)(=O)c3ccccc3Cl)cc2OC)cc2cnc(N[C@H]3CC[C@H](N(C)C)CC3)nc12` [Compound 159, 2-chloro-N-(6-(2-(((1r,4r)-4-(dimethylamino)cyclohexyl)amino)-8-ethylquinazolin-6-yl)-5-methoxypyridazin-3-yl)benzenesulfonamide], with 5 to 50 nM.
For `CCc1cc(-c2ccc(NS(=O)(=O)c3cccc(C)c3Cl)nc2C)cc2cnc(N[C@H]3CC[C@H](N(C)C)CC3)nc12` [Compound 160, 2-chloro-N-(5-(2-(((1r,4r)-4-(dimethylamino)cyclohexyl)amino)-8-ethylquinazolin-6-yl)-6-methylpyridin-2-yl)-3-methylbenzenesulfonamide], the EC50 at IRE1a [2] is under 5 nM.
For the molecule `CCc1c(F)c(-c2ccc(NS(=O)(=O)c3ccccc3Cl)nc2C)cc2cnc(N[C@H]3CC[C@H](N(C)C)CC3)nc12` [Compound 161, 2-chloro-N-(5-(2-(((1r,4r)-4-(dimethylamino)cyclohexyl)amino)-8-ethyl-7-fluoroquinazolin-6-yl)-6-methylpyridin-2-yl)benzenesulfonamide], the EC50 at IRE1a [2] was under 5 nM.
On the same count and under the same terms, the result for `CCc1c(F)c(-c2cc(F)c(NS(=O)(=O)c3ccccc3Cl)nc2C)cc2cnc(N[C@H]3CC[C@H](N(C)C)CC3)nc12` [Compound 162, 2-chloro-N-(5-(2-(((1r,4r)-4-(dimethylamino)cyclohexyl)amino)-8-ethyl-7-fluoroquinazolin-6-yl)-3-fluoro-6-methylpyridin-2-yl)benzenesulfonamide] reads under 5 nM; that for `CCc1c(F)c(-c2cc(F)c(NS(=O)(=O)c3ccccc3Cl)nc2OC)cc2cnc(N[C@H]3CC[C@H](N(C)C)CC3)nc12` [Compound 163, 2-chloro-N-(5-(2-(((1r,4r)-4-(dimethylamino)cyclohexyl)amino)-8-ethyl-7-fluoroquinazolin-6-yl)-3-fluoro-6-methoxypyridin-2-yl)benzenesulfonamide], under 5 nM.
In the case of `CCc1cc(-c2ccc(NS(=O)(=O)c3ccccc3Cl)nc2C)cc2cnc(N[C@H]3CC[C@H](N)CC3)nc12` [Compound A, N-(5-(2-(((1r,4r)-4-aminocyclohexyl)amino)-8-ethylquinazolin-6-yl)-6-methylpyridin-2-yl)-2-chlorobenzenesulfonamide], in series [3], the oral bioavailability was 4%.
As for `CCc1cc(-c2ccc(NS(=O)(=O)c3ccccc3Cl)nc2C)cc2cnc(NC3CCC(N(C)C)CC3)nc12` (stereo not drawn) [Compound C], the “shift in potency between Compound A and Compound C” value in the series on IRE1a/XBP1 pathway is “approximately 3.6 ×”. In addition, the metabolic fate entry in series [4] is “removal of the methyl groups”. Moreover, the “concentration sufficient to reduce XBP1s protein levels below the limit of detection” value on IRE1a [5] is 20 nM. At IRE1a [5] (pre-incubation with compound), the “ER stress-induced IRE1a phosphorylation” value is “strongly repressed” and the “accumulation of XBP1s protein” value is reported as “completely abrogated”. The “suppression of IRE1a-mediated XBP1 splicing in pancreas and salivary gland” value in series [6] is “potently suppressed”.
As for `CCc1cc(-c2ccc(NS(=O)(=O)c3ccccc3Cl)nc2OC)cc2cnc(NC3CCC(N(C)C)CC3)nc12` (stereo not drawn) [Compound D], the metabolic fate result in series [4] is “removal of the methyl groups”. In series [6], the “suppression of IRE1a-mediated XBP1 splicing in pancreas and salivary gland” value is listed as “potently suppressed”.
